In ChEMBL document CHEMBL3045017, “Responses of Spodoptera littoralis larvae to Tunisian plant extracts and to neo-clerodane diterpenoids isolated from Ajuga pseudoiva leaves” (2000) one finds AFI data, which are given here for 5 compounds.

Assay type in all cases: functional
The subject of assay [1] is Spodoptera littoralis. Put plainly: Antifeedant activity against final stage larvae of Spodoptera littoralis at 1 mg/l after 8 to 24 hr.
In assay [2] the test system is Spodoptera littoralis. Put plainly: Antifeedant activity against final stage larvae of Spodoptera littoralis at 100 mg/l after 8 to 24 hr.
In assay [3] the test system is Spodoptera littoralis. Put plainly: Antifeedant activity against final stage larvae of Spodoptera littoralis at 10 mg/l after 8 to 24 hr.
The test system of assay [4] is Spodoptera littoralis. Put plainly: Antifeedant activity against final stage larvae of Spodoptera littoralis at 0.1 mg/l after 8 to 24 hr.

Structures are written as SMILES.

Regarding `CO[C@@H]1C[C@@H]2C[C@@H]([C@@]3(C)[C@H](C)C[C@H](OC(C)=O)[C@]4(COC(C)=O)[C@@H]3C[C@H](O)[C@H](OC(=O)C(C)C)[C@]43CO3)O[C@@H]2O1` [HATIVENE C], the AFI in the assay with Spodoptera littoralis [1] was 63.3%; with Spodoptera littoralis [2] it was 100%; in the assay on Spodoptera littoralis [3] it was 100%; in the assay with Spodoptera littoralis [4], 42.7%.
Consider `CO[C@H]1C[C@@H]2C[C@@H]([C@@]3(C)[C@H](C)C[C@H](OC(C)=O)[C@]4(COC(C)=O)[C@@H]3C[C@@H](O)[C@H](OC(=O)C(C)C)[C@]43CO3)O[C@@H]2O1` [HATIVENE A], for which the AFI in the assay on Spodoptera littoralis [1] came to 63.3%; in the assay with Spodoptera littoralis [2] it was 100%; with Spodoptera littoralis [3], 100%; in the assay on Spodoptera littoralis [4] it was 37.3%.
For the compound `CC[C@H](C)C(=O)O[C@H]1[C@H](O)C[C@@H]2[C@@](C)([C@@H]3C[C@H]4CCO[C@H]4O3)[C@H](C)C[C@H](OC(C)=O)[C@@]2(COC(C)=O)[C@@]12CO2` [14,15-DIHYDROAJUGAPITIN], the AFI in the assay with Spodoptera littoralis [1] is on record as 92.6%; in the assay on Spodoptera littoralis [2], 100%; with Spodoptera littoralis [3], 100%; in the assay on Spodoptera littoralis [4], 65.9%.
Turning to `CC[C@@H](C)C(=O)O[C@H]1[C@H](O)C[C@@H]2[C@@](C)([C@@H]3C[C@H]4C[C@@H](OC)O[C@H]4O3)[C@H](C)C[C@H](OC(C)=O)[C@@]2(COC(C)=O)[C@@]12CO2` [LUPULIN A], the AFI in the assay on Spodoptera littoralis [1] was determined as 74.5%; in the assay with Spodoptera littoralis [2], 100%; in the assay on Spodoptera littoralis [3] it was 100%; with Spodoptera littoralis [4] it was 45%.
In the case of `CO[C@@H]1C[C@@H]2C[C@@H]([C@@]3(C)[C@H](C)C[C@H](OC(C)=O)[C@]4(COC(C)=O)[C@@H]3C[C@@H](O)[C@H](OC(=O)C(C)C)[C@]43CO3)O[C@@H]2O1` [HATIVENE B], the AFI was found to be 69% in the assay on Spodoptera littoralis [1], 100% with Spodoptera littoralis [2], 100% in the assay on Spodoptera littoralis [3] and 41.2% in the assay with Spodoptera littoralis [4].
